Measurements taken from patent US20250134875A1, “FORMULATIONS OF ALK-5 KINASE INHIBITORS AND USES THEREOF” (Thirona Bio, Inc., priority 2023, published 2025).

Assay: Stability studies (storage and forced degradation)
Type: physicochemical
Experimental: The physical solubility of the formulation is an important factor in the development of the formulation.
The active ingredient, Compound 1, is very stable, and has known stability of greater than 5 years.
The stability studies were also conducted by storing the samples under the conditions of accelerated degradation (40° C./75% RH). The stress conditions and the resulting stability of the formulation is provided below.

Known stability of the active ingredient: greater than 5 years
SMILES: Cc1cccc(-n2ncc(C)c2-c2cc3cnccc3s2)n1 [Compound 1]
